Experimental data reported in PMC9571264 (Molecules, 2022).

What was measured:
[1] = tested on: HepG2 cells; experiment: Agarose gel electrophoresis DNA fragmentation, HepG2; format: cell-based, human
[2] = tested on: Liver Cancer HepG2; experiment: MTT cytotoxicity assay, HepG2; format: cell-based, human; conditions: Homo sapiens, HepG2, 48 h, read-out: IC50 (µM) ± SEM, Liver Cancer HepG2
Experimental: (§1) Cytotoxic activities of the synthesized derivatives were screened against leukemia (HL60), liver (HepG2), breast (MCF-7), and lung (A549) cancer cell lines and non-cancerous THLE2 and WISH cells at different concentrations [0.01–100 µM] for 48 h using the MTT assay (Table 1).
(§2) Human promyelocytic leukemia ”HL-60”, human hepatocellular carcinoma “HepG2”, human breast cancer “MCF-7”, human lung cancer “A549” cell lines, and two normal cell lines, THLE-2 as normal adult liver epithelial cells and WISH as normal epithelial cells, were obtained from American Type Culture Collection “Rockville, MD, USA”.
(§3) According to the manufacturer’s protocol, the cells were seeded in 96-well plates at a concentration of 5 × 10^4 cells per well (200 µL). Different concentrations of the tested compounds were used to test the cytotoxicity. […] A non-linear regression of curve fit was used to calculate the IC50.

[3] = tested on: Lung Cancer A549; experiment: MTT cytotoxicity assay, A549; format: cell-based; conditions: Homo sapiens, 48 h, read-out: IC50 (µM) ± SEM, Lung Cancer A549
Experimental: as §1, §2, §3

[4] = tested on: HepG2 cancer cells; experiment: DNA content-flow cytometry cell-cycle analysis, HepG2; format: cell-based, human; conditions: HepG2, IC50 = 13.14 μM, 48 h
Experimental: (§4) (See supplementary information for the detailed methodology of flow cytometric analyses, including “FITC/Annexin-V-FITC/PI differential apoptosis/necrosis”, “DNA content-flow cytometry aided cell cycle”, and “Caspase 3/7 green flow cytometry”).
Supplementary materials for detailed methodology […]
2.2.2.1.2. DNA Content-Flow Cytometry Aided Cell Cycle Analysis
After treatment with test compounds for 48 h, cells (10^5 cells) are collected by trypsinization and washed twice with ice-cold PBS (pH 7.4). Cells are re-suspended in two milliliters of 60% ice-cold ethanol and incubated at 4 °C for 1 h for fixation. Fixed cells are washed twice again with PBS (pH 7.4) and re-suspended in 1 mL of PBS containing 50 μg/mL RNAase A and 10 μg/mL propidium iodide (PI). After 20 min of incubation in dark at 37 C, cells are analyzed for DNA contents using flow cytometry analysis using FL2 (λex/em 535/617 nm) signal detector (ACEA Novocyte™ flowcytometer, ACEA Biosciences Inc., San Diego, CA, USA). For each sample, 12,000 events are acquired. Cell cycle distribution is calculated using ACEA NovoExpress™ software (ACEA Biosciences Inc., San Diego, CA, USA).
2.2.2.1.3. Caspase- 3/7 green flow cytometry assay
The ability of compounds 4 and 9 to induce the enzymatic activities of caspase 3/7 in HL60 and HepG2 respectively were assayed using caspase 3/7 green flow cytometry assay method. Briefly, control and the tested compounds treated cells (2.5x10^5/mL) were rinsed with ice cold PBS, cell lysates were prepared and subsequently protein

[5] = tested on: caspases 3/7 in HepG2 cells; experiment: Caspase 3/7 green flow cytometry assay, HepG2; format: cell-based, human; conditions: HepG2, 48 h; untreated cells 1.32%
From the text: Apoptosis is a form of cell death programmed by the family of cysteine protease. In response to the various cell death stimuli, a large irreversible proteolytic cascade is triggered and subsequently generated. The effector caspase activity has been evaluated to determine the apoptotic pathway initiated by the tested compounds using the “Cell Event™ Caspase 3/7 Green Detection kit”.
as §4
Supplementary materials for detailed methodology
2.2.2.1. Flow cytometric analysis
2.2.2.1.1. FITC/Annexin-V-FITC/PI Differential Apoptosis/Necrosis Assessment Apoptosis and necrosis cell populations are determined using Annexin V-FITC apoptosis detection kit (Abcam Inc., Cambridge Science Park, Cambridge, UK) coupled with 2 fluorescent channels flowcytometry. […] After staining, cells are injected via ACEA Novocyte™ flowcytometer (ACEA Biosciences Inc., San Diego, CA, USA) and analyzed for FITC and PI fluorescent signals using FL1 and FL2 signal detector, respectively (λex/em 488/530 nm for FITC and λex/em 535/617 nm for PI). […]
concentration was measured. […]

## Cc1c(Br)c(=O)oc2c(Br)c(OC(=O)/C=C/c3ccccc3)c(Br)cc12 [Compound 8b, (2E)-3,6,8-Tribromo-4-methyl-2-oxo-2H-chromen-7-yl Cinnamate]
[1]
  DNA fragmentation: Loss of intact DNA fragments
[2]
  IC50: 13.1 ± 0.22 µM
[3]
  IC50: 4.63 ± 0.16 µM
[4]; control 1.71%
  pre-G1 cell population: 12.56%
[4]; control 12.34%
  G2/M cell population: 26.05%
[4]; control 53.6%
  G0/G1 cell population: 42.53%
[5]
  Apoptotic cells due to active caspases 3/7: 6.09%
